IC50 data for 2 compounds are collected here from patent US5232928A, “Tetrahydroisoquinoline amides” (Boehringer Ingelheim Pharmaceuticals, Inc., priority 1991, dated 1993).

SMILES strings stand for the structures. Where two headings read alike, the source gives them in different places. Where a SMILES comes first, the peptide text is derived from it. [ ]: non-standard residue; d: D form. The star is where a group is joined. ξ: configuration not given here. ξTic = O=C(O)C1Cc2ccccc2CN1; Cbz = O=C(OCc1ccccc1)*; ξV = CC(C)C(N)C(=O)O; CF3 = FC(F)(F)*

Common to all, as to format: biochemical
The target of one assay is T1, Human Leukocyte Elastase (Homo sapiens, UniProt P08246).
T1 construct: purchased Elasten Products Co., Pacific, Mo; host or cells: human sputum
T1 sequence (P08246 30-247 limits assumed): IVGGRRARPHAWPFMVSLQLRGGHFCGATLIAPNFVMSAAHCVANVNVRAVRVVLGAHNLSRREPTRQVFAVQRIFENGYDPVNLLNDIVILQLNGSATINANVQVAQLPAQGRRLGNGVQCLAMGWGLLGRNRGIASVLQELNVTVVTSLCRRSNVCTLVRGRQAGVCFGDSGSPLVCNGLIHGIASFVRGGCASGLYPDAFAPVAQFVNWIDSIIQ
The assay is described as follows: Elastase inhibition in vitro, MeO-Suc-Ala-Ala-Pro-Val-pNA hydrolysis (human sputum elastase). The source says:
The method of K. Nakajima et al., Journal of Biological Chemistry, 254: 4027-4032 was adapted to a microtiter format. The in vitro assay is based upon the hydrolysis of the commercially available (Sigma Chemical Company, St. Louis, Mo.) substrate methoxy O-succinyl-L-alanyl-L-alanyl-L-prolyl-L-valine para - nitroanilide (MeO-Suc-Ala-Ala-Pro-Val-pNA) and the release of para-nitroanilide (pNA), which absorbs at 405 nm.
b. Vmax Kinetic Microtiter Plate Reader, equipped with 405 nm filter (Molecular Devices)
a. Human sputum elastase (HSE) (Elasten Products Co., Pacific, Mo.) dissolved 1 mg/mL in 0.05M sodium chloride and frozen (50 μL aliquots) at -20° C. until used.
b. Stock solution of MeO-Suc-Ala-Ala-Pro-Val-pNA dissolved at 15 mM in dimethylsulfoxide (DMSO) and frozen (4 mL aliquots) at -20° C. until used.
c. Assay buffer: 0.1M tris buffer, pH 7.5 containing 0.5M sodium choloride.
Screening is performed in microtiter plates, using 0.5 mM substrate and monitored on a Microtiter Reader. Enzyme activity (+/- test compound) is determined as the rate of pNA release (linear regression analysis of slope). Inhibitory activity of the test compound is calculated relative to the uninhibited enzyme control, as follows: [formula]
A frozen aliquot of HSE is thawed and diluted with assay buffer to a stock concentration of 0.02 mg/mL (30×assay concentration). […]

The next assay addresses Cathepsin B (Homo sapiens, UniProt P07858). As to the kind of experiment: Selectivity assay: cathepsin B. The following applies: selectivity table.
In assay [1] the target is Recombitant 3C - Proteinase. The assay is described as follows: Selectivity assay: recombinant 3C-proteinase. The following applies: selectivity table.
The target of a further assay is Chymotrypsin (Bos taurus, UniProt P00766). As to the kind of experiment: Selectivity assay: chymotrypsin. The following applies: selectivity table.
Another assay has as its target T2, Recombitant HIV Protease (Human immunodeficiency virus type 1 group M subtype B, UniProt P04585).
T2 construct: Recombitant HIV Protease
As to the kind of experiment: Selectivity assay: recombinant HIV protease. Particulars: selectivity table.

A further assay concerns the target Thrombin (Homo sapiens, UniProt P00734). As to the kind of experiment: Selectivity assay: thrombin. Particulars: selectivity table.
For another assay, the target named is Plasmin (Homo sapiens, UniProt P00747). The assay is described as follows: Selectivity assay: plasmin. The following applies: selectivity table.
A further assay concerns the target Urokinase (Homo sapiens, UniProt P00749). As to the kind of experiment: Selectivity assay: urokinase. Particulars: selectivity table.
A further assay deals with T3, Human C1 Esterase (Homo sapiens, UniProt P09871).
T3 sequence (P09871 438-688 limits assumed): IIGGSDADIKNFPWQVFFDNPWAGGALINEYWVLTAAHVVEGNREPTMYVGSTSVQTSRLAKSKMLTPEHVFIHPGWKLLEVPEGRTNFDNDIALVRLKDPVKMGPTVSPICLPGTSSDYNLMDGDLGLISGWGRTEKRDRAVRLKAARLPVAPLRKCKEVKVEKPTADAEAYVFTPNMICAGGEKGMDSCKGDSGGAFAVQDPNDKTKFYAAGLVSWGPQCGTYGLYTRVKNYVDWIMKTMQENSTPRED
T3 sequence (P09871 16-437 partner limits assumed): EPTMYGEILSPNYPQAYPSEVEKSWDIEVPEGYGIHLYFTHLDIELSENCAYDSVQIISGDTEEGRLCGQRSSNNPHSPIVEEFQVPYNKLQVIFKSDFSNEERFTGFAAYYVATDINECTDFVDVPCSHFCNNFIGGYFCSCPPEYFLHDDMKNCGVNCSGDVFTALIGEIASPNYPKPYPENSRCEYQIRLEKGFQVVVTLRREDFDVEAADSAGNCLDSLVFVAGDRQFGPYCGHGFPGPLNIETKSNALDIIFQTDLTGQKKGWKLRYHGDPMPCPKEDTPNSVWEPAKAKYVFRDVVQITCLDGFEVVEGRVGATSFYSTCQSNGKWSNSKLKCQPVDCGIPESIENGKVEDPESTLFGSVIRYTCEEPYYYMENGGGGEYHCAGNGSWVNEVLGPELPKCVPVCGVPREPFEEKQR
The assay is described as follows: Selectivity assay: human C1 esterase. Particulars: selectivity table.

Chain of Plasmin (P00747 581-810 limits assumed, species assumed): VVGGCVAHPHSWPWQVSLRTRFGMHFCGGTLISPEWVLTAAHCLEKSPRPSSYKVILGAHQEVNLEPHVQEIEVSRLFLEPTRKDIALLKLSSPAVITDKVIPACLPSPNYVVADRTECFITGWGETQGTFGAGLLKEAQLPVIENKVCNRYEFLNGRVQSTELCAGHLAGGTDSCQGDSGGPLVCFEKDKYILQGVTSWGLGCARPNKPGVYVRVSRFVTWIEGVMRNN
Chain of Plasmin (P00747 97-580 partner limits assumed, species assumed): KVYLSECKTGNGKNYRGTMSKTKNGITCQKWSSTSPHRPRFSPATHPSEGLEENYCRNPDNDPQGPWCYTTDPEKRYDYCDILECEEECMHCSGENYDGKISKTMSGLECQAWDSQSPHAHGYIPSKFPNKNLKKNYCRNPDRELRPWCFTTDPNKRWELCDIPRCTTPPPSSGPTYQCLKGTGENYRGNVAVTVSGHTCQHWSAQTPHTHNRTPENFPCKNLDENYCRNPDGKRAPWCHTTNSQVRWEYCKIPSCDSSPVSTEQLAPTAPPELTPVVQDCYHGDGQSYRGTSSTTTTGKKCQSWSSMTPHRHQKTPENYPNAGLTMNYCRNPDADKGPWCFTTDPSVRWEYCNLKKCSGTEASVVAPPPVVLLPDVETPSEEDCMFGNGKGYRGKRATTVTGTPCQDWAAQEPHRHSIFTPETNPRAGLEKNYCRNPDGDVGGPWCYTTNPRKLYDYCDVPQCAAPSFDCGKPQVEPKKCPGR

On to `CC(C)C(NC(=O)C1Cc2ccccc2CN1C(=O)[C@@H](NC(=O)OCc1ccccc1)C(C)C)C(=O)C(F)(F)F` (stereo partly drawn) [CBZ] (Cbz-Val-[ξTic]-[ξV]-CF3), for which, on Human Leukocyte Elastase (Table I, in vitro inhibition, 0.5 mM substrate, pH 7.5, read-out: In Vitro IC50), the IC50 is under 17.8 µM.

Consider `CC(C)C(NC(=O)C1Cc2ccccc2CN1C(=O)[C@@H](NC(=O)c1ccc(C(=O)NS(=O)(=O)c2ccc(Cl)cc2)cc1)C(C)C)C(=O)C(F)(F)F` (stereo partly drawn) [p-[p-Cl(C6 H4)SO2 NHCO](C6 H4)CO, [[4-(4-Chlorophenyl)sulfonylaminocarbonyl]phenyl-1-oxomethyl]-L-valyl-N-[3-(1,1,1-trifluoro-4-methyl-2-oxopentyl)]-1,2,3,4-tetrahydro-3-isoquinoline-carboxamide], for which the IC50 is over 8.01 µM against Cathepsin B; over 50 µg/mL in assay [1]; over 8.01 µM against Chymotrypsin; over 66.7 µM on Recombitant HIV Protease; 0.082 µg/mL against Human Leukocyte Elastase (selectivity table, Human Leukocyte Elastase); over 8.01 µM against Thrombin. Further, the IC50 on Plasmin, against Urokinase and on Human C1 Esterase was over 8.01 µM throughout.

One may read the IC50 as the concentration needed to halve the response being measured.
